Laboratory results as given in patent US10973815B2, “Delta opioid agonist mu opioid antagonist compositions and methods for treating Parkinsons disease” (priority 2016, dated 2021).
“Also recorded” adds a separate entry of the source.

Experiments:
[1] = test system: L-DOPA naïve MPTP-lesioned macaques; experiment: Monotherapy with Formula (i) in L-DOPA naïve MPTP-lesioned macaques; format: in vivo, Macaca fascicularis
Description: This activity is measured by an infra-red movement detector and captures all movement, normal and abnormal. MPTP-lesioned cynomolgus monkeys received acute oral administration of either vehicle or Formula (i) (1, 10 or 20 mg/kg) according to a randomized incomplete Latin Square-type. Levels of activity were assessed every minute over the entire 6 h observation. […] (FIG. 1A; time-course) or cumulated shown in FIG. 1B for 0-3 h; or FIG. 1C for 3-6 hr. N=8 for all treatment groups. */**/*** represents P<0.05, P<0.01 or P<0.001 cf. vehicle-treatment; 2-way RM ANOVA (FIG. 1A) or 1-way RM-ANOVA with Holm-Sidak's Multiple Comparison test (FIGS. 1B and C) (ns—not significant).
MPTP-lesioned cynomolgus monkeys received acute oral administration of either vehicle or Formula (i) (1, 10 or 20 mg/kg) according to a randomized incomplete Latin Square-type. Levels of bradykinesia were assessed every 10 min over the entire 6 h observation and total duration of ON-time (minutes for which bradykinesia was absent) was calculated. Data are mean±s.e.m. N=8 for all treatment groups. All P>0.05, cf vehicle-treatment; 1-way, RM-ANOVA with Holm-Sidak's Multiple Comparison test.
Parkinsonian disability is scored by a trained neurologist who is blinded to treatment allocation but is trained to differentiate normal from abnormal movements and is able to distinguish diminution of Parkinsonian disability from dyskinetic (abnormal) movements. MPTP-lesioned cynomolgus monkeys received acute oral administration of either vehicle or Formula (i) (1, 10 or 20 mg/kg) according to a randomized incomplete Latin Square-type. Levels of parkinsonian disability were assessed every 10 min over the entire 6 h observation. […] N=8 for all treatment groups. */P<0.05 cf. vehicle-treatment; 2-way RM ANOVA of ranked data (FIG. 5A) or 1-way RM-ANOVA with Holm-Sidak's Multiple Comparison test (FIGS. 5B and C).
(§1) Eight cynomolgus monkeys (Macaca fascicularis, 6.4-6.8 years of age, 2.8-4.2 kg were used in this study. Animals were housed two or three per cage in the same housing room. The housing rooms were subject to a 12 hour light-dark cycle (lights on 7 a.m.), temperature 20-25° C. in a room containing only animals of the same sex. Fresh fruit, primate pellets and water were available ad libitum other than at times of overnight fasting prior to PK or behavioral assessment days.
(§2) The animals were rendered parkinsonian via once-daily subcutaneous injection of MPTP (0.2 mg/kg), administered for between 9 and 12 days, until the appearance of parkinsonism symptoms. After this time, a parkinsonian syndrome reached a moderate to marked level, over approximately 30 days, and stabilized. […] L-DOPA naïve animals have received no L-DOPA and those showing established motor complication have received L-DOPA in an amount 25 mg/kg orally twice daily for at least 2 months. L-DOPA is given with the decarboxylase inhibitor benserazide (as Madopar™).

[2] = test system: MPTP-lesioned macaques with established motor complications; experiment: Monotherapy with DPI-289 in MPTP-lesioned macaques with established motor complications due to L-DOPA; format: in vivo, Macaca fascicularis
Description: This activity is measured by an infra-red movement detector and captures all movement, normal and abnormal. Data are mean±s.e.m. […] N=8 for all treatment groups. */**/*** represents P<0.05, P<0.01 or P<0.001 cf vehicle-treatment; 2-way RM ANOVA (FIG. 2A) or 1-way RM-ANOVA with Holm-Sidak's Multiple Comparison test (FIGS. 2B and C). […].
Parkinsonian disability is scored by a trained neurologist who is blinded to treatment allocation but is trained to differentiate normal from abnormal movements and is able to distinguish diminution of Parkinsonian disability from dyskinetic (abnormal) movements. Data are mean±s.e.m. […] N=8 for all treatment groups. */**/*** represents P<0.05, P<0.01 or P<0.001 cf. vehicle-treatment; 2-way RM ANOVA (FIG. 6A) or 1-way RM-ANOVA with Holm-Sidak's Multiple Comparison test (FIGS. 6 B and C).
as §1, §2

6-OHDA-lesioned rats = experiment: Rotations in unilateral 6-OHDA-lesioned rats; format: in vivo, rat
Description: N=6 rats per group, Newman-Keuls post hoc test was used for statistical significance.
N=8 per group, Newman-Keuls post hoc test for statistical significance.
In a rat model of PD, focal injection of the neurotoxin 6-hydroxydopamine (6-OHDA) was used to create a unilateral lesion of the nigrostriatal dopamine pathway. When challenged with dopamine agonists, rats rotate in the direction contralateral to the lesion and the number of rotations may be used as a measure of anti-parkinsonian efficacy.

[3] = test system: unilateral 6-OHDA-lesioned Rats; experiment: Postural asymmetry and dyskinesia (AIMs) on repeated dosing in unilateral 6-OHDA-lesioned rats; format: in vivo, rat; settings: 3 mg/kg p.o. daily for 15 days
[4] = Oral bioavailability in macaques; set-up: species or system Macaca fascicularis; settings: cynomolgus monkey, in vivo
Description: ON-time represents lack of bradykinesia so mere improvement in bradykinesia would not be reflected in changes in ON-time. The oral bioavailability of the drug in these animals was only 1-2% so the lack of effect on ON-time is likely due to inadequate systemic exposure levels. Higher systemic levels of the drug may have a more profound effect on bradykinesia and which could translate into changes in ON-time.

[5] = 1, 10 or 20 mg/kg oral, Friedman test
[6] = any dose assessed (1, 10, 20 mg/kg oral)

CCN(CC)C(=O)c1ccc(C(c2cccc(O)c2)N2C[C@@H](C)N(Cc3cccc(F)c3)C[C@@H]2C)cc1 (stereo partly drawn) [DPI-289, 4-((alpha-R)-alpha-((2S,5R)-2,5-Dimethyl-4-(3-fluorobenzyl)-1-piperazinyl)-3-hydroxybenzyl)-N,N-diethylbenzamide]
total duration of ON-time (mean) ([1]; 1 mg/kg oral, 6 h observation): 46 ± 48 min
postural impairment level ([1]; 10 mg/kg oral, 1-2 h period of observation (2-3 h after treatment), P<0.01 cf. vehicle): absent-mild levels
increase in activity counts cf. vehicle ([1]; 10 mg/kg oral, 1-2 h period of observation (2-3 h after treatment), P<0.05): 62%
parkinsonian disability level ([1]; 10 mg/kg oral, 1-2 h period of observation (2-3 h after treatment), P<0.05 cf. vehicle (mild-moderate levels)): absent-mild levels
total duration of ON-time (mean) ([1]; 10 mg/kg oral, 6 h observation): 49 ± 48 min
bradykinesia level ([1]; 10 mg/kg oral, first four hours of observation (1-5 h after administration), P<0.05 cf. vehicle (moderate-marked levels)): mild-moderate levels
increase in activity counts cf. vehicle ([1]; 20 mg/kg oral, 1-2 h period of observation (2-3 h after treatment), P<0.01): 63%
increase in activity counts cf. vehicle ([1]; 20 mg/kg oral, 2-3 h period of observation, P<0.05): 82%
total duration of ON-time (mean) ([1]; 20 mg/kg oral, 6 h observation): 1 ± 1 min
dyskinesia ([1]; 1, 10 or 20 mg/kg oral, 6 h observation, listed as Formula (i)): did not evoke dyskinesia; also recorded: All zero values
average postural impairment cumulated 0-3 h ([1]; 1, 10 or 20 mg/kg oral, Friedman P=0.031, post-hoc Dunn's all P>0.05): significant effect of Formula (i) treatment
average bradykinesia cumulated 0-3 h ([1]; 1, 10 or 20 mg/kg oral, Friedman P=0.034, post-hoc Dunn's all P>0.05): significant effect of DPI-289 treatment
average bradykinesia cumulated 3-6 h [1, 5]: no significant effects
average parkinsonism cumulated over 0-3 h and 3-6 h [1, 5]: no significant effect
average postural impairment cumulated 3-6 h [1, 5]: no significant effects
average activity cumulated over 0-3 h and 3-6 h ([1]; 1, 10 or 20 mg/kg oral, cf. vehicle): no significant effect
alertness [1, 6]: no increase in levels of alertness
range of movement [1, 6]: no reduction in levels of impaired range of movement
total duration of ON-time cf. vehicle [1, 6]: no significant increase in total duration of ON-time
bradykinesia ([2]; 20 mg/kg): significant change only in the first hour
ON-time ([2]; 20 mg/kg oral): only limited on-time
parkinsonian disability ([2]; 20 mg/kg, two to three hours after dosing): significant reduction in parkinsonian disability
postural impairment ([2]; 1, 10 and 20 mg/kg, two to four hours after dosing): significant reduction in postural impairment
range of movement ([2]; 1, 10 or 20 mg/kg, three to four hours after dose): increase in the range of movement
alertness ([2]; 10 or 20 mg/kg, two to four hours after dosing): significant reduction in deficits in alertness
dyskinesia ([2]; L-DOPA primed animals, 1, 10, 20 mg/kg): does not cause dyskinesia
duration of effect on parkinsonian disability ([2]; single dose of 20 mg/kg): about 4 hours
movement activity / motor impairment ([2]; single oral dose of 10 or 20 mg/kg): significantly alleviated motor impairment for 1 to 4 hours
contralateral and ipsilateral rotations (6-OHDA-lesioned rats; 30 mg/kg): also increased rotations but the effect on contralateral rotations appeared to be diminished
contralateral and ipsilateral rotations (6-OHDA-lesioned rats; 1-10 mg/kg i.p.): dose-related increase in both contralateral and ipsilateral rotations
L-DOPA-induced contralateral rotations (6-OHDA-lesioned rats; co-administered with sub-optimal dose of L-DOPA (25 mg/kg i.p.)): marked potentiation of contralateral rotations
dyskinesia (abnormal involuntary movements, AIMs) [3]: did not elicit dyskinesia
postural asymmetry [3]: reduced or reversed the postural asymmetry
bioavailability [4]: 1 to 2%
